According to patent US20250090557A1 (priority 2020, published 2025):
Entries after “also recorded” stand apart in the source; their conditions may differ. Counter-ions that a name gives are not always drawn. Like-named read-outs stand apart in the source and are kept apart here.

Legend:
SARS-CoV-2 = format: cell-based
IL-6 = format: cell-based, human
Keap1 = Keap1 protein levels in Calu3 cells (flow cytometry); format: cell-based, human; conditions: infected and uninfected Calu3, pretreatment, data not shown
HO-1 = HO-1 protein levels in Calu3 cells (flow cytometry); format: cell-based, human
Nrf2 = Nrf2 protein levels in Calu3 cells (flow cytometry); format: cell-based, human; conditions: infected and uninfected Calu3, pretreatment, data not shown
uninfected cultures = conditions: 10-1000 nM
[1] = Calu3, 0.25 μM pretreatment, data not shown

COC(=O)/C=C/C(=O)OC [DMF, dimethyl fumarate]
viral titers / antiviral effect vs vehicle control (TCID50) (SARS-CoV-2; Calu3, 10 μM DMF alone, FIG. 11-a): did not produce an observable antiviral effect; also recorded: did not reduce viral titers | release of progeny SARS-CoV-2 virus particles to the cell supernatant (TCID50 assay) (SARS-CoV-2; Calu3, pretreatment with 10 μM DMF for 24 h, FIG. 5-a): reduction in subsequent release of progeny SARS-CoV-2 virus particles | cytotoxicity (XTT assay) (Calu3 cells; uninfected Calu3, 100 μM, 24 h): cytotoxic | release of IL-6 from infected cells (ELISA) (IL-6; Calu3, pretreatment 10 μM for 24 h): reduction in subsequent release of IL-6 | protein levels of Keap (Keap1): reduced protein levels of Keap | HO-1 protein levels (HO-1; Calu3, pretreatment 10 μM, data not shown): increased HO-1 protein levels | protein levels of Nrf2 (Nrf2): did not impact protein levels of Nrf2

CCCCCCCCCC[P+](c1ccccc1)(c1ccccc1)c1ccccc1.[Br-] [DTPP]
antiviral activity (TCID50 assay) (SARS-CoV-2; Calu3, 1000 nM): Antiviral activity was observed | cytotoxicity (XTT assay) (Calu3 cells; uninfected cells, 1000 nM): not cytotoxic

CC1(C)CC(NC(=O)C[P+](c2ccccc2)(c2ccccc2)c2ccccc2)CC(C)(C)N1[O] [Mito-TEMPO]
cytotoxicity (XTT assay) (uninfected cultures): no observed cytotoxicity

brusatol
effect on the antiviral effect of DMF and Mito-MES (TCID50) (SARS-CoV-2; Calu3, 0.25 μM pretreatment for 24 h): inhibited the antiviral effect of both DMF alone and Mito-MES | SARS-CoV-2 infection (flow cytometry) (SARS-CoV-2; [1]): directly enhanced SARS-CoV-2 infection | effect on the reduction in percent infected cells induced by Mito-MES and DMF (SARS-CoV-2; [1]): attenuated the reduction in the percent of infected Calu3 cells | release of progeny SARS-CoV-2 virus particles to the cell supernatant (TCID50) (SARS-CoV-2; Calu3, pretreatment with 0.25 μM): significantly increased subsequent release of progeny SARS-CoV-2 virus particles | effect on the anti-inflammatory effect of Mito-MES (IL-6 ELISA) (IL-6; Calu3, 0.25 μM): inhibited the anti-inflammatory effect of Mito-MES | release of IL-6 to the cell supernatant from infected cells (ELISA) (IL-6; Calu3, pretreatment 0.25 μM): significantly increased subsequent release of IL-6 | protein levels of Keap (Keap1): increased protein levels of Keap | HO-1 protein levels (HO-1): increased the HO-1 protein levels | impact on the effect of Mito-MES on HO-1 protein levels (HO-1; Calu3, 0.25 μM, data not shown): did not have an impact on the effect of Mito-MES on HO-1 protein levels | protein levels of Nrf2 (Nrf2): reduced protein levels of Nrf2
